Source: BindingDB's records for doi:10.1021/acs.jnatprod.6b01127 (Beijing University of Chinese Medicine, 2017)

Target: Signal transducer and activator of transcription 3 (Homo sapiens, UniProt P40763)
Assay: Inhibition of IL-6-Induced STAT3 activation (unknown origin) expressed in human HepG2 cells expressing pSTAT3-luciferase pre-incubated for 1 hr before IL-6 stimulation for 6 hrs by luciferase reporter gene assay

Chain of Signal transducer and activator of transcription 3 (P40763 whole entry): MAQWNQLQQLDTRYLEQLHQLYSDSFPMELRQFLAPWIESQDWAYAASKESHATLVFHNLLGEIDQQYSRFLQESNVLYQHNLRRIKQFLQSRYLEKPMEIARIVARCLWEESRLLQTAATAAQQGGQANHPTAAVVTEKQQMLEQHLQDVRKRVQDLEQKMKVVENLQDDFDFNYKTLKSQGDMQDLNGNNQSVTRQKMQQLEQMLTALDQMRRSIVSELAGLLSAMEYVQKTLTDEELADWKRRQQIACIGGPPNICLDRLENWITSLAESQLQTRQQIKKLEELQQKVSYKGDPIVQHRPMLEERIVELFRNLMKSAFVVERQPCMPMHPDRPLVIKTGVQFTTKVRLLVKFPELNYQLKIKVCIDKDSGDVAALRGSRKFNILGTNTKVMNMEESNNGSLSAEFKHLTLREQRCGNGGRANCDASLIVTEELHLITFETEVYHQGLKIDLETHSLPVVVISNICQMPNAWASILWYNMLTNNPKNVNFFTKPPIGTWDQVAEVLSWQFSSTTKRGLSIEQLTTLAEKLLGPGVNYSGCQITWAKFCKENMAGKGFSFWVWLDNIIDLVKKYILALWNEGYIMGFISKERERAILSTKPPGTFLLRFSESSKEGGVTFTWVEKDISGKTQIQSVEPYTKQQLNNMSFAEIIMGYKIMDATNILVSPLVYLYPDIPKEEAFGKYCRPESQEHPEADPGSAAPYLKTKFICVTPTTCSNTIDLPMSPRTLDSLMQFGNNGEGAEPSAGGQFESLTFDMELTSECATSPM

Row | SMILES | IC50 [µM]
1 | CCO[C@@H]1C[C@@H]2C(C(=O)OC)=CO[C@@H](O[C@@H]3O[C@H](CO)[C@@H](O)[C@H](O)[C@H]3O)[C@@H]2[C@H](C)O1 | > 100
2 | COC(=O)C1=CO[C@@H](O[C@@H]2O[C@H](C)[C@@H](O)[C@H](O)[C@H]2O)[C@@H]2[C@H](C)O[C@@H](O[C@H]3[C@H](O)[C@@H](O)[C@H](O[C@@H]4OC=C(C(=O)OC)[C@H]5C[C@H](OC)O[C@@H](C)[C@@H]45)O[C@@H]3CO)C[C@H]12 | 79.1
3 | CCO[C@H]1C[C@@H]2C(C(=O)OC)=CO[C@@H](O[C@@H]3O[C@H](CO)[C@@H](O)[C@H](O)[C@H]3O)[C@@H]2[C@H](C)O1 | 67
4 | CCO[C@H]1C[C@@H]2C(C(=O)OC)=CO[C@@H](O[C@@H]3O[C@H](CO[C@H]4C[C@@H]5C(C(=O)OC)=CO[C@@H](O[C@@H]6O[C@H](CO)[C@@H](O)[C@H](O)[C@H]6O)[C@@H]5[C@H](C)O4)[C@@H](O)[C@H](O)[C@H]3O)[C@@H]2[C@H](C)O1 | > 100
5 | COC(=O)C1=CO[C@@H](O[C@@H]2O[C@H](CO)[C@@H](O[C@H]3C[C@@H]4C(C(=O)OC)=CO[C@@H](O[C@@H]5O[C@H](C)[C@@H](O)[C@H](O)[C@H]5O)[C@@H]4[C@H](C)O3)[C@H](O)[C@H]2O)[C@@H]2[C@@H](C)[C@@H](O)C[C@H]12 | 52.6
6 | COC(=O)C1=CO[C@@H](O[C@@H]2O[C@H](CO[C@H]3C[C@@H]4C(C(=O)OC)=CO[C@@H](O[C@@H]5O[C@H](CO)[C@@H](O)[C@H](O)[C@H]5O)[C@@H]4[C@H](C)O3)[C@@H](O)[C@H](O)[C@H]2O)[C@@H]2[C@H](C)O[C@@H](OC)C[C@H]12 | > 100
7 | CCO[C@@H]1C[C@@H]2C(C(=O)OC)=CO[C@@H](O[C@@H]3O[C@H](CO[C@H]4C[C@@H]5C(C(=O)OC)=CO[C@@H](O[C@@H]6O[C@H](CO)[C@@H](O)[C@H](O)[C@H]6O)[C@@H]5[C@H](C)O4)[C@@H](O)[C@H](O)[C@H]3O)[C@@H]2[C@H](C)O1 | > 100
8 | COC(=O)C1=CO[C@@H](O[C@@H]2O[C@H](CO)[C@@H](O)[C@H](O)[C@H]2O)[C@@H]2[C@@H](C)[C@@H](O[C@H]3C[C@@H]4C(C(=O)OC)=CO[C@@H](O[C@@H]5O[C@H](CO)[C@@H](O)[C@H](O)[C@H]5O)[C@@H]4[C@@H](C)O3)C[C@H]12 | 71.9
9 | COC(=O)C1=CO[C@@H](O[C@@H]2O[C@H](CO)[C@@H](O)[C@H](O)[C@H]2O)[C@@H]2[C@H](C)O[C@@H](OC[C@H]3O[C@@H](O[C@@H]4OC=C(C(=O)OC)[C@H]5C[C@@H](OC)O[C@@H](C)[C@@H]45)[C@H](O)[C@@H](O)[C@@H]3O)C[C@H]12 | 47
10 | C=C[C@H]1[C@H](O[C@@H]2O[C@H](CO)[C@@H](O)[C@H](O)[C@H]2O)OC=C2C(=O)OCC[C@H]21 [CHEBI:80907] | 89.5
11 | COC(=O)C1=CO[C@@H](O[C@@H]2O[C@H](CO)[C@@H](O)[C@H](O)[C@H]2O)[C@@H]2[C@H](C)O[C@@H](O[C@H]3[C@H](O[C@@H]4OC=C(C(=O)OC)[C@H]5C[C@H](OC)O[C@@H](C)[C@@H]45)O[C@H](CO)[C@@H](O)[C@@H]3O)C[C@H]12 | > 100

The next molecules have a lower IC50 than those just listed; values first:

Row | IC50 [µM] | SMILES
12 | 43 | COC(=O)C1=CO[C@@H](O[C@@H]2O[C@H](CO[C@@H]3C[C@@H]4C(C(=O)OC)=CO[C@@H](O[C@@H]5O[C@H](CO)[C@@H](O)[C@H](O)[C@H]5O)[C@@H]4[C@H](C)O3)[C@@H](O)[C@H](O)[C@H]2O)[C@@H]2[C@H](C)O[C@@H](OC)C[C@H]12
13 | 40.5 | COC(=O)C1=CO[C@@H](O[C@@H]2O[C@H](CO)[C@@H](O)[C@H](O)[C@H]2O[C@@H]2C[C@@H]3C(C(=O)OC)=CO[C@@H](O[C@@H]4O[C@H](CO)[C@@H](O)[C@H](O)[C@H]4O)[C@@H]3[C@H](C)O2)[C@@H]2[C@@H](C)[C@@H](O)C[C@H]12
14 | 32.5 | COC(=O)C1=CO[C@@H](O[C@@H]2O[C@H](CO)[C@@H](O)[C@H](O)[C@H]2O)[C@@H]2[C@H](C)O[C@H](OC)C[C@H]12
15 | 29.7 | COC(=O)C1=CO[C@@H](O[C@@H]2O[C@H](C)[C@@H](O)[C@H](O)[C@H]2O)[C@@H]2[C@H](C)O[C@@H](O[C@@H]3[C@@H](O)[C@H](O[C@@H]4OC=C(C(=O)OC)[C@H]5C[C@@H](OC)O[C@@H](C)[C@@H]45)O[C@H](CO)[C@H]3O)C[C@H]12
16 | 27.6 | COC(=O)C1=CO[C@@H](O[C@@H]2O[C@H](CO[C@@H]3C[C@@H]4C(C(=O)OC)=CO[C@@H](O[C@@H]5O[C@H](CO)[C@@H](O)[C@H](O)[C@H]5O)[C@@H]4[C@H](C)O3)[C@@H](O)[C@H](O)[C@H]2O)[C@@H]2[C@H](C)O[C@H](OC)C[C@H]12
17 | 24.8 | COC(=O)C1=CO[C@@H](O[C@@H]2O[C@H](CO)[C@@H](O)[C@H](O)[C@H]2O)[C@@H]2[C@H](C)O[C@@H](OC)C[C@H]12
18 | 24.8 | O=c1c(-c2ccc(O)cc2)coc2cc(O)cc(O)c12 [Prunetol]
19 | 22.9 | COC(=O)C1=CO[C@@H](O[C@@H]2O[C@H](CO)[C@@H](O)[C@H](O)[C@H]2O)[C@@H]2[C@H](C)[C@@H](O)C[C@H]12 [7-Epi-Loganin]
20 | 21.9 | COC(=O)C1=CO[C@@H](O[C@@H]2O[C@H](CO)[C@@H](O)[C@H](O)[C@H]2O)[C@@H]2[C@H](C)O[C@H](O[C@H]3[C@H](O[C@@H]4OC=C(C(=O)OC)[C@H]5C[C@H](OC)O[C@@H](C)[C@@H]45)O[C@H](CO)[C@@H](O)[C@@H]3O)C[C@H]12
21 | 19.4 | COC(=O)C1=CO[C@@H](O[C@@H]2O[C@H](CO)[C@@H](O)[C@H](O)[C@H]2O)[C@@H]2[C@H](C)O[C@H](O[C@H]3[C@H](O[C@@H]4OC=C(C(=O)OC)[C@H]5C[C@@H](OC)O[C@@H](C)[C@@H]45)O[C@H](CO)[C@@H](O)[C@@H]3O)C[C@H]12
22 | 14 | COC(=O)C1=CO[C@@H](O[C@@H]2O[C@H](CO)[C@@H](O)[C@H](O)[C@H]2O)[C@@H]2[C@@H](C)[C@@H](O)C[C@H]12 [Loganin]
23 | 12.2 | COC(=O)C1=CO[C@@H](O[C@@H]2O[C@H](CO[C@@H]3C[C@@H]4C(C(=O)OC)=CO[C@@H](O[C@@H]5O[C@H](CO)[C@@H](O)[C@H](O)[C@H]5O)[C@@H]4[C@H](C)O3)[C@@H](O)[C@H](O)[C@H]2O)[C@@H]2[C@@H](C)[C@@H](O)C[C@H]12
24 | 11.9 | COC(=O)C1=CO[C@@H](O[C@@H]2O[C@H](C)[C@@H](O)[C@H](O)[C@H]2O)[C@@H]2[C@H](C)O[C@@H](O[C@@H]3[C@@H](O)[C@H](O[C@@H]4OC=C(C(=O)OC)[C@H]5C[C@H](OC)O[C@@H](C)[C@@H]45)O[C@H](CO)[C@H]3O)C[C@H]12
25 | 7 | COC(=O)C1=CO[C@@H](O[C@@H]2O[C@H](CO)[C@@H](O)[C@H](O)[C@H]2O)[C@@H]2[C@H](C)O[C@H](O)C[C@H]12 [(7Alpha-Hydroxy)-Morroniside]
26 | 6.9 | COC(=O)C1=CO[C@@H](O[C@@H]2O[C@H](CO)[C@@H](O)[C@H](O)[C@H]2O)[C@@H]2[C@H](C)O[C@@H](O)C[C@H]12 [CHEBI:80852]
